Laboratory results taken from paper PMC6207370 (Xenobiotica; the fate of foreign compounds in biological …, 2017).
Where two headings read alike, the source gives them in different places. Marks after values point to notes of the source that are not given here.

What was measured:
[1] = Allometric scaling; set-up: species or system human; conditions: for SSS Human Predicted S9 CLint: exponent 0.75
[2] = Incubations with cynomolgus monkey hepatic S9; conditions: for Fm,AO Method A (fraction metabolized by AO): method A (eq. 4); for Fm,AO Method B (fraction metabolized by AO): method B (eq. 5), values > 1 assumed equal to 1
[3] = type: in vitro ADME; conditions: for Fm,AO, across species: all species
[4] = Incubations with mouse hepatic S9; conditions: for CLint scaled at 1 μM: male, CD-1, mouse, hepatic S9, pH 7.4, CLint (intrinsic clearance) in hepatic S9, mouse hepatic S9, in the presence of NADPH, Table 1, triplicate, 2–3 experiments; for Fm,AO Method A (fraction metabolized by AO): method A (eq. 4); for Fm,AO Method B (fraction metabolized by AO): method B (eq. 5), values > 1 assumed equal to 1
[5] = Incubations with guinea pig hepatic S9; conditions: for Fm,AO Method A (fraction metabolized by AO) / Fm,AO Method B (fraction metabolized by AO): guinea pig hepatic S9; for Fm,AO Method A (fraction metabolized by AO): method A (eq. 4); for Fm,AO Method B (fraction metabolized by AO): method B (eq. 5), values > 1 assumed equal to 1
[6] = Incubations with rhesus monkey hepatic S9; conditions: for Fm,AO Method A (fraction metabolized by AO) / Fm,AO Method B (fraction metabolized by AO): rhesus monkey hepatic S9; for Fm,AO Method A (fraction metabolized by AO): method A (eq. 4); for Fm,AO Method B (fraction metabolized by AO): method B (eq. 5), values > 1 assumed equal to 1
[7] = Incubations with rat hepatic S9; conditions: for CLint scaled at 1 μM: male, Sprague-Dawley, hepatic S9, pH 7.4, CLint (intrinsic clearance) in hepatic S9, rat hepatic S9, in the presence of NADPH, Table 1, triplicate, 2–3 experiments; for Fm,AO Method A (fraction metabolized by AO): method A (eq. 4); for Fm,AO Method B (fraction metabolized by AO): method B (eq. 5), values > 1 assumed equal to 1; for CLHEP (hepatic clearance): well-stirred model from S9 CLint (+NADPH), uncorrected for fraction unbound
[8] = Incubations with minipig hepatic S9; conditions: for CLint scaled at 1 μM: male, Gottingen, hepatic S9, pH 7.4, CLint (intrinsic clearance) in hepatic S9, minipig hepatic S9, in the presence of NADPH, Table 1, triplicate, 2–3 experiments; for Fm,AO Method A (fraction metabolized by AO) / Fm,AO Method B (fraction metabolized by AO): minipig hepatic S9; for Fm,AO Method A (fraction metabolized by AO): method A (eq. 4); for Fm,AO Method B (fraction metabolized by AO): method B (eq. 5), values > 1 assumed equal to 1
[9] = Incubations with human hepatic S9; conditions: for CLint scaled at 1 μM: both; for Fm,AO Method A (fraction metabolized by AO): method A (eq. 4); for Fm,AO Method B (fraction metabolized by AO): method B (eq. 5), values > 1 assumed equal to 1
[10] = Single-species scaling
[11] = cynomolgus monkey; ref Dalvie D, Zhang C, Chen W, et al. (2010); cited from earlier work
[12] = mouse; ref Dalvie D, Zhang C, Chen W, et al. (2010); cited from earlier work
[13] = rat; ref Dalvie D, Zhang C, Chen W, et al. (2010); cited from earlier work
[14] = human, hepatic S9, pH 7.4, CLint (intrinsic clearance) in hepatic S9, human hepatic S9, in the presence of NADPH, Table 1, triplicate, 2–3 experiments
[15] = human, hepatic S9, pH 7.4, CLint −NADPH, human hepatic S9 without NADPH

| SMILES | Fm,AO Method A (fraction metabolized by AO) ([2]; cynomolgus monkey hepatic S9) | Fm,AO Method B (fraction metabolized by AO) ([2]; cynomolgus monkey hepatic S9) | Fm,AO, across species [3] | CLint scaled at 1 μM [4] [mL/min/kg] | Fm,AO Method A (fraction metabolized by AO) ([4]; mouse hepatic S9) | Fm,AO Method B (fraction metabolized by AO) ([4]; mouse hepatic S9) | Fm,AO Method A (fraction metabolized by AO) [5] | Fm,AO Method B (fraction metabolized by AO) [5] | Fm,AO Method A (fraction metabolized by AO) [6] | Fm,AO Method B (fraction metabolized by AO) [6] | CLint scaled at 1 μM ([7]; rat) [mL/min/kg] | Fm,AO Method A (fraction metabolized by AO) ([7]; rat hepatic S9) | Fm,AO Method B (fraction metabolized by AO) ([7]; rat hepatic S9) | CLHEP (hepatic clearance) ([7]; rat) [mL/min/kg] | CLint scaled at 1 μM ([8]; minipig) [mL/min/kg] | Fm,AO Method A (fraction metabolized by AO) [8] | Fm,AO Method B (fraction metabolized by AO) [8] | CLint scaled at 1 μM [9, 14] [mL/min/kg] | CLint scaled at 1 μM [9, 15] [mL/min/kg] | Fm,AO Method A (fraction metabolized by AO) ([9]; human hepatic S9) | also measured |
| --- | --- | --- | --- | --- | --- | --- | --- | --- | --- | --- | --- | --- | --- | --- | --- | --- | --- | --- | --- | --- | --- |
| Cn1cc(-c2ccc3nnc(Sc4ccc5ncccc5c4)n3n2)cn1 [SGX523] | 0.58 | 0.68 | 0.03 – 0.68 | 39.4 ± 7.19 | 0.33 | 0.22 | 0.23 | 0.03 | 0.34 | 0.14 | 35.3 ± 6.39 | 0.42 | 0.28 | 23.3 ± 2.85 | 25.4 ± 1.46 | 0.18 | 0.12 | 7.1 ± 2.28 | 4.51 ± 0.31 | 0.36 | fold-error of human S9 CLint predicted by SSS ([1]; SSS from cynomolgus monkey): outside of 3-fold-error; fold-error of human S9 CLint predicted by multispecies allometry (MA) ([1]; minipig/rhesus/guinea pig combination, CLpred/CLobs): 3.0; E (estimated hepatic extraction ratio) ([2]; cynomolgus monkey, E = CLHEP/QH from hepatic S9 (+NADPH)): 0.50; E (estimated hepatic extraction ratio), across species ([3]; all species (human, mouse, rat, guinea pig, cynomolgus, rhesus, minipig) hepatic S9): 0.25 – 0.50; E (estimated hepatic extraction ratio) ([4]; mouse, E = CLHEP/QH from hepatic S9 (+NADPH)): 0.30; E (estimated hepatic extraction ratio) ([5]; guinea pig, E = CLHEP/QH from hepatic S9 (+NADPH)): 0.41; E (estimated hepatic extraction ratio) ([6]; rhesus monkey, E = CLHEP/QH from hepatic S9 (+NADPH)): 0.40; E (estimated hepatic extraction ratio) ([7]; rat, E = CLHEP/QH from hepatic S9 (+NADPH)): 0.33; E (estimated hepatic extraction ratio) ([8]; minipig, E = CLHEP/QH from hepatic S9 (+NADPH)): 0.48; Fm,AO Method B (fraction metabolized by AO) ([9]; human hepatic S9): 0.61; E (estimated hepatic extraction ratio) ([9]; human, E = CLHEP/QH from hepatic S9 (+NADPH)): 0.25 |
| N=C(N)NC(=O)c1cnn(-c2cccc3ncccc23)c1C1CC1 [Zoniporide] | 0.90 | 1 | > 0.70 | 332 ± 11.3 | 0.90 | 0.90 | 0.84 | 0.97 | 0.77 | 1^# | 466 ± 27 | 0.74 | 0.72 | 60.8 ± 0.485 | 23.4 ± 2.07 | 0.83 | 0.97 | 17.9 ± 1.77 | 17.1 ± 1.53 | 0.77 | SSS Human Predicted S9 CLint ([1]; single-species scaling from cynomolgus monkey S9 CLint): 30.7 mL/min/kg; SSS Human Predicted S9 CLint ([1]; single-species scaling from mouse S9 CLint): 43.1 mL/min/kg; SSS Human Predicted S9 CLint ([1]; single-species scaling from rat S9 CLint): 114 mL/min/kg; Fm,AO (fraction metabolized by AO) ([2]; cynomolgus monkey hepatic S9, methods A and B taken together (data from Table 3)): ≥ 0.90; Fm,AO (fraction metabolized by AO) ([4]; mouse hepatic S9, methods A and B taken together (data from Table 3)): 0.90; SSS Human Predicted CLp ([10]; single-species scaling from literature cynomolgus monkey CLp): 15.2 mL/min/kg; SSS Human Predicted CLp ([10]; single-species scaling from literature mouse CLp): 39.2 mL/min/kg; SSS Human Predicted CLp ([10]; single-species scaling from literature rat CLp): 62.7 mL/min/kg; CLp (plasma clearance) [11]: 31^§ mL/min/kg; CLp (plasma clearance) [12]: 298^§ mL/min/kg; Fm,AO (fraction metabolized by AO) ([7]; rat hepatic S9, methods A and B taken together (data from Table 3)): 0.72–0.74; CLp (plasma clearance) [13]: 237^§ mL/min/kg; Fm,AO Method B (fraction metabolized by AO) ([9]; human hepatic S9): 0.72; Fm,AO (fraction metabolized by AO) ([9]; human hepatic S9, methods A and B taken together (data from Table 3)): 0.72–0.77 |
